# Measured values from article PMC2792877 (Biochemistry, 2008).
# Target: pa-FPR (Pseudomonas aeruginosa, UniProt Q9HYK7)
# Assay: 1H-15N HSQC NMR titration, […] fit
# Type: binding
# pa-FPR, sequence (Q9HYK7 whole entry): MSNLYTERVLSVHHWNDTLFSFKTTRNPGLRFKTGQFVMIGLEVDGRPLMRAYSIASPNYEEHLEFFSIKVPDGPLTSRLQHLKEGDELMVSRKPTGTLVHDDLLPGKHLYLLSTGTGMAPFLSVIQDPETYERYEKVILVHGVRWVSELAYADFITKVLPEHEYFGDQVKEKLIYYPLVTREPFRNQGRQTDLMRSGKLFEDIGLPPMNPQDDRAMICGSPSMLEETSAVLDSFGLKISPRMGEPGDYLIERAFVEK
smiles,measurement,value
NC(=O)c1ccc[n+]([C@@H]2O[C@H](COP(=O)(O)OP(=O)(O)OC[C@H]3O[C@@H](n4cnc5c(N)ncnc54)[C@H](OP(=O)(O)O)[C@@H]3O)[C@@H](O)[C@H]2O)c1 [NADP^+],Kd,24 µM
